The results in this text go back to patent publication US4079141A, “Azabicycloalkanes” (priority 1976, dated 1978).

The structures appear in SMILES notation. Read-outs that look alike come from different tables or passages of the source.

Assay [1] concerns mania (increased motor activity) produced in mice by morphine. Description: Morphine antagonist test: inhibition of the characteristic mania (increased motor activity) produced in mice by morphine. The note with it: for % Inhibition (percent of pairs in which the mania is inhibited): subcutaneous, concurrently with 25 mg/kg morphine sulfate, 10 pairs of mice. The format is in vivo. Here is the method:
A sample of 25 mg/kg of body weight of morphine sulfate and the compound of the invention to be tested are concurrently administered subcutaneously to 10 pairs of mice. The mice are then observed for inhibition of the characteristic mania (increased motor activity) normally produced in mice by morphine. Results are outlined in Table II and expressed as percent of pairs in which the mania is inhibited at a given dose level.

In assay [2] the test system is 2-phenyl-1,4-quinone induced writhing. Briefly: 2-phenyl-1,4-quinone induced writhing assay in mice (analgesia). The assay is classed as in vivo. The note with it: Mus musculus, sc, read-out: ED50 (inhibition of writhing). The text has this:
Compounds of the invention are useful as analgesic agents due to their ability to alleviate pain in mammals. […] Exptl. Biol. Med., 95, 729 (1957)].
Background: An intraperitoneal irritant provokes the stretching counted in writhing tests.

[3] abbreviates: 0.25 h, mice, subcutaneous, drug administration time 15 minutes.
[4] abbreviates: 0.5 h, mice, subcutaneous, drug administration time 30 minutes.

With `Oc1cccc(C23CCC(C2)N(Cc2ccco2)CC3)c1` (stereo not shown) [2-(2-furylmethyl)-5-(3-hydroxyphenyl)-2-azabicyclo[3.2.1]octane.HBr], the “% Inhibition (percent of pairs in which the mania is inhibited)” value in assay [1] (dose 25 mg/kg) turned out to be 100%. In assay [2] (setting [3]), the ED50 was determined as 22 mg/kg.
Consider `O=C(CCCN1CCC2(c3cccc(O)c3)CCC1C2)c1ccc(F)cc1` (stereo not shown) [2-[3-(4-fluorobenzoyl)propyl]-5-(3-hydroxyphenyl)-2-azabicyclo[3.2.1]octane.HBr], for which the “% Inhibition (percent of pairs in which the mania is inhibited)” value in assay [1] (dose 10 mg/kg) is 100%.
On to `O=C(CCCN1CCC2(c3cccc(O)c3)CCC1C2)c1ccc(F)cc1` (stereo not shown) [2-[3-(4-fluorobenzoyl)propyl]-5-(3-hydroxyphenyl)-2-azabicyclo[3.2.1]octane], for which, in assay [2] (setting [4]), the ED50 turned out to be 0.35 mg/kg.
As to `COc1cccc(C23CCC(C2)N(CCCC(=O)c2ccc(F)cc2)CC3)c1` (stereo not shown) [2-[3-(4-fluorobenzoyl)propyl]-5-(3-methoxyphenyl)-2-azabicyclo[3.2.1]octane.HBr], in assay [1] (dose 10 mg/kg), the “% Inhibition (percent of pairs in which the mania is inhibited)” value is 100%. Further, the ED50 in assay [2] (1 h, mice, subcutaneous, drug administration time 60 minutes) came out at 0.7 mg/kg.
`Oc1cccc(C23CCC(C2)N(CC2CC2)CC3)c1` (stereo not shown) [2-cyclopropylmethyl-5-(3-hydroxyphenyl)-2-azabicyclo[3.2.1]octane.HBr]: the “% Inhibition (percent of pairs in which the mania is inhibited)” value in assay [1] (dose 25 mg/kg) is 100%. In addition, the ED50 in assay [2] (setting [4]) was found to be 6 mg/kg.
As for `CCCCCN1CCC2(c3cccc(O)c3)CCC1C2` (stereo not shown) [2-n-amyl-5-(3-hydroxyphenyl)-2-azabicyclo[3.2.1]octane.HBr], the “% Inhibition (percent of pairs in which the mania is inhibited)” value in assay [1] (dose 3 mg/kg) was 50%; in assay [1] (dose 25 mg/kg) it was 100%. The ED50 in assay [2] (setting [4]) was 11 mg/kg.
As for `CCCCCN1CCC2(c3cccc(OC)c3)CCC1C2` (stereo not shown) [2-n-amyl-5-(3-methoxyphenyl)-2-azabicyclo[3.2.1]octane.HBr], the “% Inhibition (percent of pairs in which the mania is inhibited)” value in assay [1] (dose 30 mg/kg) was found to be 100%. Further, the ED50 in assay [2] (setting [4]) was determined as 5 mg/kg.
On to `CCCCN1CCC2(c3cccc(O)c3)CCC1C2` (stereo not shown) [2-n-butyl-5-(3-hydroxyphenyl)-2-azabicyclo[3.2.1]octane.HBr], for which the “% Inhibition (percent of pairs in which the mania is inhibited)” value in assay [1] (dose 25 mg/kg) turned out to be 100%. In addition, in assay [2] (setting [3]), the ED50 came to 9 mg/kg.
Take `CCCCN1CCC2(c3cccc(OC)c3)CCC1C2` (stereo not shown) [2-n-butyl-5-(3-methoxyphenyl)-2-azabicyclo[3.2.1]octane.HBr]: in assay [1] (dose 25 mg/kg), the “% Inhibition (percent of pairs in which the mania is inhibited)” value is reported as 100%. Further, in assay [2] (setting [4]), the ED50 came out at 4.6 mg/kg.
Take `CC(=O)Oc1cccc(C23CCC(C2)N(C)CC3)c1` (stereo not shown) [5-(3-acetoxyphenyl)-2-methyl-2-azabicyclo[3.2.1]octane.HBr]: the “% Inhibition (percent of pairs in which the mania is inhibited)” value in assay [1] (dose 50 mg/kg) is 100%.
Turning to `CC(=O)Oc1cccc(C23CCC(C2)N(CCc2ccccc2)CC3)c1` (stereo not shown) [5-(3-acetoxyphenyl)-2-phenethyl-2-azabicyclo[3.2.1]octane.HBr], the “% Inhibition (percent of pairs in which the mania is inhibited)” value in assay [1] (dose 10 mg/kg) is reported as 70%. Further, in assay [2] (setting [4]), the ED50 was 6.1 mg/kg.
Turning to `CN1CCC2(c3cccc(O)c3)CCC1C2` (stereo not shown) [5-(3-hydroxyphenyl)-2-methyl-2-azabicyclo[3.2.1]octane.HBr], the “% Inhibition (percent of pairs in which the mania is inhibited)” value in assay [1] (dose 50 mg/kg) is 80%. Further, in assay [2] (setting [4]), the ED50 was 9.5 mg/kg.
On to `CCCN1CCC2(c3cccc(O)c3)CCC1C2` (stereo not shown) [5-(3-hydroxyphenyl)-2-n-propyl-2-azabicyclo[3.2.1]octane.HBr], for which, in assay [1] (dose 50 mg/kg), the “% Inhibition (percent of pairs in which the mania is inhibited)” value turned out to be 100%. In assay [2] (setting [3]), the ED50 worked out at 8.9 mg/kg.
Turning to `Oc1cccc(C23CCC(C2)N(CCc2ccccc2)CC3)c1` (stereo not shown) [5-(3-hydroxyphenyl)-2-phenethyl-2-azabicyclo[3.2.1]octane.HBr], the “% Inhibition (percent of pairs in which the mania is inhibited)” value in assay [1] (dose 1 mg/kg) was 50%; in assay [1] (dose 50 mg/kg), 100%. Moreover, in assay [2] (setting [3]), the ED50 was 0.7 mg/kg.
Regarding `COc1cccc(C23CCC(C2)N(C)CC3)c1` (stereo not shown) [5-(3-methoxyphenyl)-2-methyl-2-azabicyclo[3.2.1]octane.HBr], the “% Inhibition (percent of pairs in which the mania is inhibited)” value in assay [1] (dose 50 mg/kg) came out at 50%. The ED50 in assay [2] (setting [4]) was found to be 7.9 mg/kg.
On to `CCCN1CCC2(c3cccc(OC)c3)CCC1C2` (stereo not shown) [5-(3-methoxyphenyl)-2-n-propyl-2-azabicyclo[3.2.1]octane.HBr], for which the “% Inhibition (percent of pairs in which the mania is inhibited)” value is recorded as 50% in assay [1] (dose 10 mg/kg) and 100% in assay [1] (dose 50 mg/kg). The ED50 in assay [2] (setting [3]) was 7.4 mg/kg.
For the molecule `COc1cccc(C23CCC(C2)N(CCc2ccccc2)CC3)c1` (stereo not shown) [5-(3-methoxyphenyl)-2-phenethyl-2-azabicyclo[3.2.1]octane.HBr], the ED50 in assay [2] (setting [4]) was determined as 5.9 mg/kg.
For the molecule `CN1CC[C@]23c4c5ccc(O)c4O[C@H]2[C@@H](O)C=C[C@H]3[C@H]1C5` [morphine, reference compound], the ED50 in assay [2] (0.5 h) was 0.47 mg/kg.
`CC(C)=CCN1CCC2(C)c3cc(O)ccc3CC1C2C` (stereo not shown) [pentazocine, reference compound]: the ED50 was greater than 50 mg/kg in assay [1] (Mus musculus, sc, mice, concurrently with morphine sulfate, for comparison, read-out: dose exhibiting a 50% inhibition (of morphine mania)); 1.5 mg/kg in assay [2] (setting [3]); 4.8 mg/kg in assay [2] (setting [4]).
